From US11274085B2, “3-aryl-bicyclic [4,5,0] hydroxamic acids as HDAC inhibitors” (Valo Health, Inc., priority 2015, dated 2022)

target: T1, human recombinant HDAC6 (Homo sapiens, UniProt Q9UBN7); experiment: In vitro histone deacetylase assay: enzymatic HDAC6 electrophoretic mobility shift assay; type: biochemical; conditions: full length human recombinant HDAC6 1 nM, 2 μM peptide substrate RHKK(Ac)-NH2, 25° C.; read-out: Inhibitory Concentration (IC50) against HDAC6, Activity Range
T1 sequence (Q9UBN7 1-1215): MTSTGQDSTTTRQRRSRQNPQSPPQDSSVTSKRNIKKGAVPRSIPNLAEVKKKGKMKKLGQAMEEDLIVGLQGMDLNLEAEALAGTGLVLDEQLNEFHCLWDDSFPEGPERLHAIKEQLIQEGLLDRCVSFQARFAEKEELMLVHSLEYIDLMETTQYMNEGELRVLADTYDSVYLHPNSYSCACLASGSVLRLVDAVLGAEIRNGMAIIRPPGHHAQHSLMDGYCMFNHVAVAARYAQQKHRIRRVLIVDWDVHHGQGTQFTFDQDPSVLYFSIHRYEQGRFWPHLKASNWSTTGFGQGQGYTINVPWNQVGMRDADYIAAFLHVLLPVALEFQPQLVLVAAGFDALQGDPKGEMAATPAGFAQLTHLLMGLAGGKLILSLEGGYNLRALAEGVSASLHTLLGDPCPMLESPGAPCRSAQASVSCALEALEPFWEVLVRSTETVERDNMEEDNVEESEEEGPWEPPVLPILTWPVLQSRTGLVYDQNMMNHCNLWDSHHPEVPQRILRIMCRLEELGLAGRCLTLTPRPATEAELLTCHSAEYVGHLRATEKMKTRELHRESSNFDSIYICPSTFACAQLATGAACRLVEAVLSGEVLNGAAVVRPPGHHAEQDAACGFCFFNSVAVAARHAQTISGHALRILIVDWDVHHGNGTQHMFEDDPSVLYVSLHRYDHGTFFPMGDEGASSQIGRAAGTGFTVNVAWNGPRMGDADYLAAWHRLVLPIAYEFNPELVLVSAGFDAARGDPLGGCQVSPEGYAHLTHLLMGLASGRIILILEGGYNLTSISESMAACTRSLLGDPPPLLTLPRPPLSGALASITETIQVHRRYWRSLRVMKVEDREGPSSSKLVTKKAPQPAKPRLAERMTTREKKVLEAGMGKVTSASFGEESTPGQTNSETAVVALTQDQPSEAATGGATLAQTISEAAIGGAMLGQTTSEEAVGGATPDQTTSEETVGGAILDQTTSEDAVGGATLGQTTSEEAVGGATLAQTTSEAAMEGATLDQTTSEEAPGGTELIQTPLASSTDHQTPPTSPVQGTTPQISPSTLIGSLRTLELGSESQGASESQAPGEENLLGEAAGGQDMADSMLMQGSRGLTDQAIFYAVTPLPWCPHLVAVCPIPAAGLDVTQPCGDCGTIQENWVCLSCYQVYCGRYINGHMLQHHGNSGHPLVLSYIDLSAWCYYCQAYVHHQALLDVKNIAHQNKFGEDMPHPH
Procedure: The enzymatic HDAC6 assay was performed using electrophoretic mobility shift assay. […] The enzymatic reactions were assembled in 384 well plates and in a total volume of 25 μL in a reaction buffer comprising: 100 mM HEPES, pH 7.5, 25 mM KCl, 0.1% bovine serum albumin, 0.01% Triton X-100, 1% DMSO (from compounds), 2 μM of the fluorescently labeled peptide substrate, and enzyme. The enzyme was added at a final concentration of 1 nM and the peptide substrate RHKK(Ac)—NH2 was used. The compounds were tested at 12 concentrations spaced by 3× dilution intervals. Negative control samples (0%-inhibition in the absence of inhibitor) and positive control samples (100%-inhibition) were assembled in replicates of four in each assay plate. The reactions were incubated at 25° C. and quenched by the addition of 45 μL of termination buffer (100 mM HEPES, pH 7.5, 0.01% Triton X-100, 0.05% SDS).
The terminated assay plates were analyzed on LabChip® 3000 microfluidic electrophoresis instrument (Perkin Elmer/Caliper Life Sciences). The fluorescence intensity of the electrophoretically separated de-acetylated product and substrate peptide was measured. Activity in each sample was determined as the product to sum ratio (PSR):P/(S+P), where P is the peak height of the product peptide and S is the peak height of the substrate peptide. Percent inhibition (Pinh) is determined using the following equation: Pinh=(PSR0%−PSRinh)/(PSR0%−PSR100%)*100, where PSRinh is the product sum ratio in the presence of inhibitor, PSR0% is the average product sum ration in the absence of inhibitor, and PSR100% is the average product sum ratio in 100%-inhibition control samples. The IC50 values of inhibitors were determined by fitting the %-inhibition curves with 4 parameter dose-response model using XLfit 4 software.
As set forth in Table 4, below, IC50 values are defined as follows: IC50≤0.1 μM (+++); IC50>0.1 μM and ≤0.5 μM (++); IC50>0.5 μM (+).

IC50	Compound
≤ 100 nM	O=C(NO)c1ccc2c(c1)OC[C@H](c1ccc(F)cc1)N(C(=O)N1CCOCC1)C2 [(S)-3-(4-fluorophenyl)-N-hydroxy-4-(morpholine-4-carbonyl)-2,3,4,5-tetrahydrobenzo[f][1,4]oxazepine-8-carboxamide]
≤ 100 nM	O=C(NO)c1ccc2c(c1)OC[C@H](c1ccccc1)N(c1ccccc1)C2 [(S)-N-hydroxy-3,4-diphenyl-2,3,4,5-tetrahydrobenzo[f][1,4]oxazepine-8-carboxamide]
≤ 100 nM	COc1ccc(CN2Cc3ccc(C(=O)NO)cc3OC[C@@H]2c2ccccc2)cc1 [(S)-N-hydroxy-4-(4-methoxybenzyl)-3-phenyl-2,3,4,5-tetrahydrobenzo[f][1,4]oxazepine-8-carboxamide]
≤ 100 nM	O=C(NO)c1ccc2c(c1)OC[C@H](c1ccccc1)N(C(=O)NC1CCOCC1)C2 [(S)-N8-hydroxy-3-phenyl-N4-(tetrahydro-2H-pyran-4-yl)-2,3-dihydrobenzo[f][1,4]oxazepine-4,8(5H)-dicarboxamide]
≤ 100 nM	O=C(NO)c1ccc2c(c1)OC[C@H](c1ccccc1)N(C(=O)NC1CCCCC1)C2 [(S)-N4-cyclohexyl-N8-hydroxy-3-phenyl-2,3-dihydrobenzo[f][1,4]oxazepine-4,8(5H)-dicarboxamide]
≤ 100 nM	O=C(NO)c1ccc2c(c1)OC[C@H](c1ccccc1)N(C(=O)Nc1ccncc1)C2 [(S)-N8-hydroxy-3-phenyl-N4-(pyridin-4-yl)-2,3-dihydrobenzo[f][1,4]oxazepine-4,8(5H)-dicarboxamide]
≤ 100 nM	O=C(NO)c1ccc2c(c1)OC[C@H](c1ccc(Cl)cc1)N(C(=O)N1CCOCC1)C2 [(S)-3-(4-chlorophenyl)-N-hydroxy-4-(morpholine-4-carbonyl)-2,3,4,5-tetrahydrobenzo[f][1,4]oxazepine-8-carboxamide]
100 to 500 nM	O=C(NO)c1ccc2c(c1)OC[C@@H](c1ccccc1)N(c1ccccc1)C2 [(R)-N-hydroxy-3,4-diphenyl-2,3,4,5-tetrahydrobenzo[f][1,4]oxazepine-8-carboxamide]

More lines, now with the values behind:

Compound	IC50
O=C(NO)c1ccc2c(c1)OC[C@@H](c1cccnc1)N(C(=O)N1CCOCC1)C2 (single isomer, unassigned)	> 500 nM
O=C(NO)c1ccc2c(c1)OC[C@H](c1ccccc1)N(C(=O)N1CCCC1)C2 [(S)-N-hydroxy-3-phenyl-4-(pyrrolidine-1-carbonyl)-2,3,4,5-tetrahydrobenzo[f][1,4]oxazepine-8-carboxamide]	≤ 100 nM
Cc1ccc([C@H]2COc3cc(C(=O)NO)ccc3CN2C(=O)N2CCOCC2)cc1 [(S)-N-hydroxy-4-(morpholine-4-carbonyl)-3-(p-tolyl)-2,3,4,5-tetrahydrobenzo[f][1,4]oxazepine-8-carboxamide]	≤ 100 nM
O=C(NO)c1ccc2c(c1)OC[C@H](c1ccc(C(F)(F)F)cc1)N(C(=O)N1CCOCC1)C2 [(S)-N-hydroxy-4-(morpholine-4-carbonyl)-3-(4-(trifluoromethyl)phenyl)-2,3,4,5-tetrahydrobenzo[f][1,4]oxazepine-8-carboxamide]	≤ 100 nM
CN1Cc2ccc(C(=O)NO)cc2OC[C@H]1c1ccccc1 [(R)-N-hydroxy-4-methyl-3-phenyl-2,3,4,5-tetrahydrobenzo[f][1,4]oxazepine-8-carboxamide]	≤ 100 nM
O=C(NO)c1ccc2c(c1)OC[C@H](c1ccccc1)N(C(=O)Nc1cccnc1)C2 [(S)-N8-hydroxy-3-phenyl-N4-(pyridin-3-yl)-2,3-dihydrobenzo[f][1,4]oxazepine-4,8(5H)-dicarboxamide]	≤ 100 nM
O=C(NO)c1ccc2c(c1)OC[C@H](c1ccccc1)N(S(=O)(=O)c1ccc(F)cc1)C2 [(S)-4-((4-fluorophenyl)sulfonyl)-N-hydroxy-3-phenyl-2,3,4,5-tetrahydrobenzo[f][1,4]oxazepine-8-carboxamide]	100 to 500 nM
O=C(NO)c1ccc2c(c1)OC[C@H](c1cccc(Cl)c1)N(C(=O)N1CCOCC1)C2 [(S)-3-(3-chlorophenyl)-N-hydroxy-4-(morpholine-4-carbonyl)-2,3,4,5-tetrahydrobenzo[f][1,4]oxazepine-8-carboxamide]	≤ 100 nM
CN1Cc2ccc(C(=O)NO)cc2OC[C@@H]1c1ccccc1 [(S)-N-hydroxy-4-methyl-3-phenyl-2,3,4,5-tetrahydrobenzo[f][1,4]oxazepine-8-carboxamide]	≤ 100 nM
COC1CCN(C(=O)N2Cc3ccc(C(=O)NO)cc3OC[C@@H]2c2ccccc2)CC1 [(S)-N-hydroxy-4-(4-methoxypiperidine-1-carbonyl)-3-phenyl-2,3,4,5-tetrahydrobenzo[f][1,4]oxazepine-8-carboxamide]	≤ 100 nM
O=C(NO)c1ccc2c(c1)OC[C@H](c1ccccc1)N(C(=O)N1CCCCC1)C2 [(S)-N-hydroxy-3-phenyl-4-(piperidine-1-carbonyl)-2,3,4,5-tetrahydrobenzo[f][1,4]oxazepine-8-carboxamide]	≤ 100 nM
CN(C)C(=O)N1Cc2ccc(C(=O)NO)cc2OC[C@@H]1c1ccccc1 [(S)-N8-hydroxy-N4,N4-dimethyl-3-phenyl-2,3-dihydrobenzo[f][1,4]oxazepine-4,8(5H)-dicarboxamide]	≤ 100 nM
COc1ccc(CN2Cc3ccc(C(=O)NO)cc3OC[C@H]2c2ccccc2)cc1 [(R)-N-hydroxy-4-(4-methoxybenzyl)-3-phenyl-2,3,4,5-tetrahydrobenzo[f][1,4]oxazepine-8-carboxamide]	≤ 100 nM
O=C(NO)c1ccc2c(c1)OC[C@H](c1ccccc1)N(C(=O)N1CCOCC1)C2 [(S)-N-hydroxy-4-(morpholine-4-carbonyl)-3-phenyl-2,3,4,5-tetrahydrobenzo[f][1,4]oxazepine-8-carboxamide]	≤ 100 nM
CN1CCN(C(=O)N2Cc3ccc(C(=O)NO)cc3OC[C@@H]2c2ccccc2)CC1 [(S)-N-hydroxy-4-(4-methylpiperazine-1-carbonyl)-3-phenyl-2,3,4,5-tetrahydrobenzo[f][1,4]oxazepine-8-carboxamide]	≤ 100 nM
O=C(NO)c1ccc2c(c1)OC[C@H](c1cccnc1)N(C(=O)N1CCOCC1)C2 (single isomer, unassigned)	≤ 100 nM
CC(=O)N1CCN(C(=O)N2Cc3ccc(C(=O)NO)cc3OC[C@@H]2c2ccccc2)CC1 [(S)-4-(4-acetylpiperazine-1-carbonyl)-N-hydroxy-3-phenyl-2,3,4,5-tetrahydrobenzo[f][1,4]oxazepine-8-carboxamide]	≤ 100 nM
O=C(NO)c1ccc2c(c1)OC[C@H](c1ccccc1)N(C(=O)Nc1ccccc1)C2 [(S)-N8-hydroxy-N4,3-diphenyl-2,3-dihydrobenzo[f][1,4]oxazepine-4,8(5H)-dicarboxamide]	≤ 100 nM
